In brackets after ≈: the same amount, converted by molar mass. Several values for one entry are separate records, joined by “and”; a condition that tells them apart may be missing. Equal entries are not always repeated. Marks after values point to notes of the source that are not given here.
Columns and labels:
[1] = Solubility determination; type: physicochemical; conditions: for solubility: thermodynamic from solid
[2] = Octanol/water partition coefficient determination; type: physicochemical
[3] = Stratum corneum/water partition coefficient determination; type: physicochemical, human
[4] = cited from earlier work
[5] = PBS pH 7.4 with 30% DMSO, 37 °C, pseudo first order
[6] = fresh rat plasma, 37 °C
[7] = pH 7.4
[8] = stratum corneum / 5% propylene glycol in water, 24 hrs

| Compound | solubility ([1]; organic solvent or mixture, Solubility in IPM) [µM] | solubility ([1]; pH 2.5, aqueous buffer, Solubility in water) [µM] | logP at 24 h ([2]; octanol/0.02 M phosphate buffer pH 2.5, pH 2.5) | Partition coefficient (LogK SC/ 5% PG water) ([3]; water substituted with 0.02 M phosphate buffer at pH 2.5, 24 hrs) | octanol/water partition coefficient ([4]; ref Drug Bank website) | Solubility in 5% PG water [1] [µM] | Solubility in Hexane [1] [µM] | Solubility in IPM [1] [µM] | Solubility in water [1] [µM] | Decrease of solubility in water relative to unionized DA ([1]; pH 2.5) | Partition coefficient (LogP octanol/water) [2] | Partition coefficient (LogK SC/ 5% PG water) [3, 8] | Hydrolysis in PBS (half life in hours) [5] [h] | Bioconversion in plasma (half life in min) [6] | Aqueous solution flux (steady state, across HEM) [7] | LogPO/W [4] | Increase of solubility in purified water relative to unionized DA ([1]; pH 2.5) [fold] |
| --- | --- | --- | --- | --- | --- | --- | --- | --- | --- | --- | --- | --- | --- | --- | --- | --- | --- |
| O=C(O)Cc1ccccc1Nc1c(Cl)cccc1Cl [DA, Diclofenac Acid, reference compound] | 12600 (≈ 3730 µg/mL) | 3.4 (≈ 1.01 µg/mL) | 4.57 | 2.97^a | 4.9 | – | – | – | – | – | – | – | – | – | – | – | – |
| COC(=O)Cc1ccccc1Nc1c(Cl)cccc1Cl [MD, Methanol Diclofenac Ester] | – | – | – | – | – | 1.9 (≈ 0.589 µg/mL) | 21000 (≈ 6510 µg/mL) | 43000 (≈ 13300 µg/mL) | 1.9 (≈ 0.589 µg/mL) | more than 2 folds | 5.00 | 3.56 | 34.6 | – | – | – | – |
| O=C(Cc1ccccc1Nc1c(Cl)cccc1Cl)OCCCO [PD, 1,3 Propylene Glycol Diclofenac Ester] | – | – | – | – | – | 4.8 (≈ 1.7 µg/mL) | 2220 (≈ 786 µg/mL) | 13600 (≈ 4820 µg/mL) | 3.3 (≈ 1.17 µg/mL) | – | 4.08 | 2.58 | 63.9 | 2.4 min and 2.41 min | 0.84(0.25) nmol·cm^−2·hr^−1 | – | – |
| O=C(c1ccccc1)c1ccc2n1CCC2C(=O)O (stereo not drawn) [ketorolac] | – | – | – | – | – | – | – | – | – | – | – | – | – | – | – | around 1 | – |
| Glycerol Diclofenac Ester [GD] | – | – | – | – | – | 662 | 386 | 69700 | 551 | – | 3.30 | – | – | – | 5.54(0.78) nmol·cm^−2·hr^−1 | – | > 100 |

Source: article PMC4772728 (Drug development and industrial pharmacy, 2013)
